Columns and labels:
Assay type in all cases: in vivo
Setaria faberi (SETFA) [1] = test: Post-emergence herbicidal activity, glasshouse pot test; set-up: key: 5=total damage to plant; 0=no damage to plant; settings: 1000 g/ha, post-emergence spray after 8 days cultivation, evaluated after 13 days, damage score 0-5
Procedure: (§1) Seeds of a variety of test species were sown in standard soil in pots: Triticum aestivium (TRZAW), Avena fatua (AVEFA), Alopecurus myosuroides (ALOMY), Echinochloa crus-galli (ECHCG), Lolium perenne (LOLPE), and Setaria faberi (SETFA). After 8 days cultivation (post-emergence) under controlled conditions in a glasshouse (at 24/16° C., day/night; 14 hours light; 65% humidity), the plants were sprayed with an aqueous spray solution derived from the formulation of the technical active ingredient in acetone/water (50:50) solution containing 0.5% Tween 20 (polyoxyethelyene sorbitan monolaurate, CAS RN 9005-64-5). The test plants were then grown in a glasshouse under controlled conditions (at 24/16° C., day/night; 14 hours light; 65% humidity) and watered twice daily. After 13 days, the test was evaluated (5=total damage to plant; 0=no damage to plant).

Lolium perenne (LOLPE) [2] = test: as above; set-up: key: 5=total damage to plant; 0=no damage to plant; settings: 1000 g/ha, post-emergence spray after 8 days cultivation, evaluated after 13 days, damage score 0-5
Procedure: as §1

[3] = system: Triticum aestivium (TRZAW); test: as above; set-up: key: 5=total damage to plant; 0=no damage to plant; settings: 1000 g/ha, post-emergence spray after 8 days cultivation, evaluated after 13 days, damage score 0-5
Procedure: as §1

[4] = system: Echinochloa crus-galli (ECHCG); test: as above; set-up: key: 5=total damage to plant; 0=no damage to plant; settings: 1000 g/ha, post-emergence spray after 8 days cultivation, evaluated after 13 days, damage score 0-5
Procedure: as §1

[5] = system: Alopecurus myosuroides (ALOMY); test: as above; set-up: key: 5=total damage to plant; 0=no damage to plant; settings: 1000 g/ha, post-emergence spray after 8 days cultivation, evaluated after 13 days, damage score 0-5
Procedure: as §1

Avena fatua (AVEFA) [6] = test: as above; settings: 1000 g/ha, post-emergence spray after 8 days cultivation, evaluated after 13 days, damage score 0-5
Procedure: as §1

Setaria faberi (SETFA) [7] = test: Pre-emergence herbicidal activity, glasshouse pot test; set-up: key: 5=total damage to plant; 0=no damage to plant; settings: 1000 g/ha, pre-emergence spray, evaluated after 13 days, damage score 0-5
Procedure: as §1, with “After” for “After 8 days”, “for one day (pre-emergence)” for “(post-emergence)”

Lolium perenne (LOLPE) [8] = test: as above; set-up: key: 5=total damage to plant; 0=no damage to plant; settings: 1000 g/ha, pre-emergence spray, evaluated after 13 days, damage score 0-5
Procedure: as §1, with “After” for “After 8 days”, “for one day (pre-emergence)” for “(post-emergence)”

Avena fatua (AVEFA) [9] = test: as above; set-up: key: 5=total damage to plant; 0=no damage to plant; settings: 1000 g/ha, pre-emergence spray, evaluated after 13 days, damage score 0-5
Procedure: as §1, with “After” for “After 8 days”, “for one day (pre-emergence)” for “(post-emergence)”

[10] = system: Triticum aestivium (TRZAW); test: as above; set-up: key: 5=total damage to plant; 0=no damage to plant; settings: 1000 g/ha, pre-emergence spray, evaluated after 13 days, damage score 0-5
Procedure: as §1, with “After” for “After 8 days”, “for one day (pre-emergence)” for “(post-emergence)”

[11] = system: Echinochloa crus-galli (ECHCG); test: as above; set-up: key: 5=total damage to plant; 0=no damage to plant; settings: 1000 g/ha, pre-emergence spray, evaluated after 13 days, damage score 0-5
Procedure: as §1, with “After” for “After 8 days”, “for one day (pre-emergence)” for “(post-emergence)”

[12] = system: Alopecurus myosuroides (ALOMY); test: as above; set-up: key: 5=total damage to plant; 0=no damage to plant; settings: 1000 g/ha, pre-emergence spray, evaluated after 13 days, damage score 0-5
Procedure: as §1, with “After” for “After 8 days”, “for one day (pre-emergence)” for “(post-emergence)”

SMILES	Control of weed species after post-emergence application, SETFA (Setaria faberi (SETFA) [1])	Control of weed species after post-emergence application, LOLPE (Lolium perenne (LOLPE) [2])	Control of weed species after post-emergence application, TRAZW [3]	Control of weed species after post-emergence application, ECHCG [4]	Control of weed species after post-emergence application, ALOMY [5]	Control of weed species after post-emergence application, AVEFA (Avena fatua (AVEFA) [6])	Control of weed species after pre-emergence application, SETFA (Setaria faberi (SETFA) [7])	Control of weed species after pre-emergence application, LOLPE (Lolium perenne (LOLPE) [8])	Control of weed species after pre-emergence application, AVEFA (Avena fatua (AVEFA) [9])	Control of weed species after pre-emergence application, TRAZW [10]	Control of weed species after pre-emergence application, ECHCG [11]	Control of weed species after pre-emergence application, ALOMY [12]
CC(C)C(=O)N(C)c1cnc(-c2cncc(F)c2)nc1C(F)(F)F [Compound F20, N-[2-(5-fluoro-3-pyridyl)-4-(trifluoromethyl)pyrimidin-5-yl]-N,2-dimethyl-propanamide]	5	3	2	5	1	4	5	1	3	1	4	0
O=C(CCC1CCCC1)Nc1cnc(-c2cncnc2)nc1C(F)(F)F [Compound F17]	4	1	1	4	0	2	4	0	1	0	3	0
O=C(Nc1cnc(-c2cncc(F)c2)nc1C(F)(F)F)c1ccccc1 [Compound F10]	5	1	1	5	0	2	4	1	1	0	4	0
O=C(C1CC1)N(C(=O)C1CC1)c1cnc(-c2cncc(F)c2)nc1C(F)(F)F [Compound F21]	5	2	1	3	1	3	4	0	0	0	1	0
N#CCN(C(=O)C1CC1)c1cnc(-c2cncc(F)c2)nc1C(F)(F)F [Compound F30]	5	2	1	4	1	2	4	2	2	1	3	0
